Laboratory results reported in the supplement of paper PMC10307832.

Legend:
Test in all cases: relative viability (nuclei count vs DMSO), 5 days (fraction); higher = more cells survive
ABC-1 = test system: ABC-1
How it was run: (§1)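 Each reported value is a median over duplicate plates. It expresses relative viability: treated-well nuclei count divided by vehicle-well nuclei count. Lung cancer cell lines in 1536-well plates were dosed by pin tool a day after seeding, alone with one drug or with a fixed anchor-drug dose plus five library-drug doses (not always all listed) in √10 steps, and nuclei were counted after 5 days.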

COR-L23 = test system: COR-L23
How it was run: as §1

ChaGo-K-1 = test system: ChaGo-K-1
How it was run: as §1

EPLC-272H = test system: EPLC-272H
How it was run: as §1

HCC-15 = test system: HCC-15
How it was run: as §1

HCC-366 = test system: HCC-366
How it was run: as §1

HCC-44 = test system: HCC-44
How it was run: as §1

HCC-827 = test system: HCC-827
How it was run: as §1

LCLC-103H = test system: LCLC-103H
How it was run: as §1

NCI-H1355 = test system: NCI-H1355
How it was run: as §1

NCI-H1734 = test system: NCI-H1734
How it was run: as §1

NCI-H1793 = test system: NCI-H1793
How it was run: as §1

NCI-H1944 = test system: NCI-H1944
How it was run: as §1

NCI-H2009 = test system: NCI-H2009
How it was run: as §1

NCI-H2023 = test system: NCI-H2023
How it was run: as §1

NCI-H2085 = test system: NCI-H2085
How it was run: as §1

NCI-H2228 = test system: NCI-H2228
How it was run: as §1

NCI-H2347 = test system: NCI-H2347
How it was run: as §1

NCI-H2405 = test system: NCI-H2405
How it was run: as §1

NCI-H3122 = test system: NCI-H3122
How it was run: as §1

PC-14 = test system: PC-14
How it was run: as §1

SW 1573 = test system: SW 1573
How it was run: as §1

SMILES: Cc1csc(=NC2CCCCC2)n1/N=C/c1ccc(O)c(O)c1O [MIM1] + COc1cccc2cc(-c3nc([C@H]4CC[C@H](C(=O)O)CC4)n4ncnc(N)c34)[nH]c12 [OSI-027] (partner 0.5 µM)
- relative viability (ABC-1; first compound 0.2 µM): 0.481
- relative viability (ABC-1; first compound 0.6325 µM): 0.46
- relative viability (ABC-1; first compound 2 µM): 0.388
- relative viability (ABC-1; first compound 6.325 µM): 0.236
- relative viability (ABC-1; first compound 20 µM): 0.298
- relative viability (COR-L23; first compound 0.2 µM): 0.843
- relative viability (COR-L23; first compound 0.6325 µM): 0.955
- relative viability (COR-L23; first compound 2 µM): 0.654
- relative viability (COR-L23; first compound 6.325 µM): 0.603
- relative viability (COR-L23; first compound 20 µM): 0.382
- relative viability (ChaGo-K-1; first compound 0.2 µM): 0.597
- relative viability (ChaGo-K-1; first compound 0.6325 µM): 0.433
- relative viability (ChaGo-K-1; first compound 2 µM): 0.535
- relative viability (ChaGo-K-1; first compound 6.325 µM): 0.387
- relative viability (ChaGo-K-1; first compound 20 µM): 0.159
- relative viability (EPLC-272H; first compound 0.2 µM): 0.254
- relative viability (EPLC-272H; first compound 0.6325 µM): 0.269
- relative viability (EPLC-272H; first compound 2 µM): 0.308
- relative viability (EPLC-272H; first compound 6.325 µM): 0.24
- relative viability (EPLC-272H; first compound 20 µM): 0.141
- relative viability (HCC-15; first compound 0.2 µM): 0.747
- relative viability (HCC-15; first compound 2 µM): 0.778
- relative viability (HCC-15; first compound 6.325 µM): 0.469
- relative viability (HCC-15; first compound 20 µM): 0.102
- relative viability (HCC-366; first compound 0.2 µM): 0.852
- relative viability (HCC-366; first compound 2 µM): 0.677
- relative viability (HCC-366; first compound 6.325 µM): 0.186
- relative viability (HCC-366; first compound 20 µM): 0.0446
- relative viability (HCC-44; first compound 0.2 µM): 0.699
- relative viability (HCC-44; first compound 0.6325 µM): 0.5
- relative viability (HCC-44; first compound 2 µM): 0.271
- relative viability (HCC-44; first compound 6.325 µM): 0.448
- relative viability (HCC-44; first compound 20 µM): 0.184
- relative viability (HCC-827; first compound 0.2 µM): 0.758
- relative viability (HCC-827; first compound 0.6325 µM): 0.775
- relative viability (HCC-827; first compound 2 µM): 0.695
- relative viability (HCC-827; first compound 6.325 µM): 0.529
- relative viability (HCC-827; first compound 20 µM): 0.187
- relative viability (LCLC-103H; first compound 0.2 µM): 0.467
- relative viability (LCLC-103H; first compound 0.6325 µM): 0.422
- relative viability (LCLC-103H; first compound 2 µM): 0.468
- relative viability (LCLC-103H; first compound 6.325 µM): 0.435
- relative viability (LCLC-103H; first compound 20 µM): 0.304
- relative viability (NCI-H1355; first compound 0.2 µM): 0.409
- relative viability (NCI-H1355; first compound 0.6325 µM): 0.366
- relative viability (NCI-H1355; first compound 2 µM): 0.399
- relative viability (NCI-H1355; first compound 6.325 µM): 0.372
- relative viability (NCI-H1355; first compound 20 µM): 0.253
- relative viability (NCI-H1734; first compound 0.2 µM): 0.666
- relative viability (NCI-H1734; first compound 0.6325 µM): 0.495
- relative viability (NCI-H1734; first compound 2 µM): 0.525
- relative viability (NCI-H1734; first compound 6.325 µM): 0.304
- relative viability (NCI-H1734; first compound 20 µM): 0.201
- relative viability (NCI-H1793; first compound 0.2 µM): 0.273
- relative viability (NCI-H1793; first compound 2 µM): 0.247
- relative viability (NCI-H1793; first compound 6.325 µM): 0.256
- relative viability (NCI-H1793; first compound 20 µM): 0.287
- relative viability (NCI-H1944; first compound 0.2 µM): 0.441
- relative viability (NCI-H1944; first compound 0.6325 µM): 0.44
- relative viability (NCI-H1944; first compound 2 µM): 0.334
- relative viability (NCI-H1944; first compound 6.325 µM): 0.365
- relative viability (NCI-H1944; first compound 20 µM): 0.285
- relative viability (NCI-H2009; first compound 0.2 µM): 0.697
- relative viability (NCI-H2009; first compound 0.6325 µM): 0.685
- relative viability (NCI-H2009; first compound 2 µM): 0.684
- relative viability (NCI-H2009; first compound 6.325 µM): 0.424
- relative viability (NCI-H2009; first compound 20 µM): 0.142
- relative viability (NCI-H2023; first compound 0.2 µM): 0.422
- relative viability (NCI-H2023; first compound 0.6325 µM): 0.501
- relative viability (NCI-H2023; first compound 2 µM): 0.305
- relative viability (NCI-H2023; first compound 6.325 µM): 0.182
- relative viability (NCI-H2023; first compound 20 µM): 0.0588
- relative viability (NCI-H2085; first compound 0.2 µM): 0.676
- relative viability (NCI-H2085; first compound 0.6325 µM): 0.808
- relative viability (NCI-H2085; first compound 2 µM): 0.712
- relative viability (NCI-H2085; first compound 6.325 µM): 0.565
- relative viability (NCI-H2085; first compound 20 µM): 0.446
- relative viability (NCI-H2228; first compound 0.2 µM): 0.773
- relative viability (NCI-H2228; first compound 0.6325 µM): 0.502
- relative viability (NCI-H2228; first compound 2 µM): 0.653
- relative viability (NCI-H2228; first compound 6.325 µM): 0.217
- relative viability (NCI-H2228; first compound 20 µM): 0.137
- relative viability (NCI-H2347; first compound 0.2 µM): 0.41
- relative viability (NCI-H2347; first compound 0.6325 µM): 0.449
- relative viability (NCI-H2347; first compound 2 µM): 0.437
- relative viability (NCI-H2347; first compound 6.325 µM): 0.392
- relative viability (NCI-H2347; first compound 20 µM): 0.287
- relative viability (NCI-H2405; first compound 0.2 µM): 0.638
- relative viability (NCI-H2405; first compound 0.6325 µM): 0.666
- relative viability (NCI-H2405; first compound 2 µM): 0.637
- relative viability (NCI-H2405; first compound 6.325 µM): 0.553
- relative viability (NCI-H2405; first compound 20 µM): 0.434
- relative viability (NCI-H3122; first compound 0.2 µM): 1.04
- relative viability (NCI-H3122; first compound 0.6325 µM): 1.11
- relative viability (NCI-H3122; first compound 2 µM): 0.904
- relative viability (NCI-H3122; first compound 6.325 µM): 0.398
- relative viability (NCI-H3122; first compound 20 µM): 0.175
- relative viability (PC-14; first compound 0.2 µM): 0.785
- relative viability (PC-14; first compound 0.6325 µM): 0.846
- relative viability (PC-14; first compound 2 µM): 0.499
- relative viability (PC-14; first compound 6.325 µM): 0.656
- relative viability (PC-14; first compound 20 µM): 0.0965
- relative viability (SW 1573; first compound 0.2 µM): 0.689
- relative viability (SW 1573; first compound 0.6325 µM): 0.724
- relative viability (SW 1573; first compound 2 µM): 0.544
- relative viability (SW 1573; first compound 6.325 µM): 0.46
- relative viability (SW 1573; first compound 20 µM): 0.0875
